Results as given in patent US20260116928A1, “COMPOSITIONS AND PARTICLES FOR PAYLOAD DELIVERY” (Thornhill Therapeutics, Inc., priority 2019, published 2026).

Test: Glucose challenge model
Format: in vivo, male CD1 mice
Conditions: mice, IP glucose challenge; 10 μg IP injection
From the text: The glucose challenge model used to test SEQ ID NO: 70-Exenatide was designed to examine the capacity of a GLP-1-like activity to enhance the rate of recovery from a glucose excursion.
The male CD1 mice used in the glucose challenge test were 9-16 weeks of age. To minimize stress due to handling, animals were acclimatized to the environment, blood sampling, and dosing procedures for 1 week prior to the start of experiments, as plasma glucose can be responsive to handling stress. Mice were fasted for 18 h prior to study. […] Blood samples were taken at t=0, 15, 30, 45, 60 min; 2, 3, and 4 hr. Blood glucose measurements were made using 5 μL blood sample taken from the tail with a commercial glucometer that was calibrated with glucose standards prior to the start of the study.

Exenatide (1-40)-Gly
time at which correction of the blood glucose excursion began: 15 min | time by which the correction profile was completed: ≤ 120 min
